“Also recorded” adds a separate entry of the source.
How the values were obtained:
[1] = tested on: HCE (human ciliary epithelial) cell line, NPE cells; assay: Cell volume in isosmotic solution (isosmotic shrinkage), Coulter Counter; format: cell-based
Procedure: Cell Culture The HCE (human ciliary epithelial) cell line (Carre et al., supra, 1997) is an immortalized NPE cell line obtained from primary cultures of adult human epithelium. […] Eye Res. 57:3057-3063 (1993); Yantorno et al., Exp. Eye Res. 49:423-437 (1989)). […] Cells were passaged every 6-7 days and were studied 8-13 days after passage, after reaching confluence. An immortalized PE-cell line from a primary culture of bovine pigmented ciliary epithelium were also grown under matching conditions. Measurement of Cell Volume in Isosmotic Solution: The volume of PE and NPE cells was measured, since the movement of fluid underlies a change in PE and NPE cell volume, respectively. This is also thought to be the same as the movement of fluid which underlines the secretion of aqueous humor (FIG. 1). […] Parallel aliquots of cells were studied on the same day. One aliquot usually served as a control, and the others were exposed to different experimental conditions at the time of suspension. The same amount of solvent vehicle (dimethylformamide, DMSO or ethanol) was always added to the control and experimental aliquots. […] Cell volumes of isosmotic suspensions were measured with a Coulter Counter (model ZBI-Channelyzer II), using a 100 μm aperture (Civan et al., supra, 1994). As previously described (Wax et al., supra, 1993), the cell volume (vC) of the suspension was taken as the peak of the distribution function. Cell shrinkage was fit as a function of time (t) to a monoexpenential function: […]^0^)/τ] {1) where v∞ is the steady-state cell volume, v0 is the cell volume at the first point (t0) of the time course to be fit, and τ is the time constant of the shrinkage. For purposes of data reduction, the data were normalized to the first time point, taken to be 100% isotonic volume. Fits were obtained by nonlinear least-squares regression analysis, permitting both v∞ and τ to be variables. […] Med. Chem. 37:636-646 (1994; Jacobson et al., supra, 1995; Jacobson et al., FEBS Lett. 336:57-60 (1993)).

[2] = tested on: intact rabbit ciliary epithelium; assay: Short-circuit current across intact rabbit ciliary epithelium (iris-ciliary body); conditions: 30 μM IB-MECA, 5 mM Ba2+, solvent-corrected
Procedure: As an initial step in data analysis, 20-min period of baseline current just before addition of any agent was fit by linear least-squares analysis. The line generated by that analysis was extrapolated to a point 45 min beyond introduction of that agent. Each current response was subtracted from its respective extrapolated baseline to yield a common initial baseline approximating constant zero current. All recordings were placed in register relative to time of agent introduction (time 0). Records of control (solvent), IB-MECA with solvent, and B-MECA corrected for solvent were separately averaged. […]
Transepithelial Measurements: In animal experiments, preferably rabbits, after anesthetization and sacrifice (Carre et al., J. Membr. Biol. 146:293-305 (1995), the iris-ciliary body (1-CB) was enucleated and isolated as described by Carre et al., 1995. In one experiment, the pupil and central iris were occluded with a Lucite disc, and the iris-ciliary body was mounted between the two halves of a Lucite chamber. The annulus of exposed tissue provided a projected surface area of 0.93 cm^2. Preparations were continuously bubbled with 95%O2-5% CO2 for maintenance of pH 7.4 in a Ringer's solution comprising (in mM): 110.0 NaCl, 10.0 HEPES (acid), 5.0 HEPES (Na^+), 30.0 NaHCO3, 2.5 CaCl2, 1.2 MgCl2, 5.9 KCl, and 10.0 glucose, at an osmolality of 305 mOsm. […]

mouse IOP [3] = assay: Mouse IOP monitored with SNMS, protocols of Yang et al. 2005; format: in vivo
Procedure: Pharmacol. 65:1675-1684 (2003)), is effective both in blocking adenosine-triggered shrinkage of cultured human NPE cells and in lowering IOP of mice (Yang et al., supra, 2005). MRS-1292 was tested on the mouse for two reasons. Transgenic mice provide a convenient opportunity for studying the molecular physiology and pharmacology in the living animal ([…] al., supra, 2003). Second, measurement of IOP permitted us to assess the effects of MRS-1292 on the target parameter. […] Therefore, to directly assess the effect of MRS-1292 in vivo in the mouse, IOP was monitored before and after drug application. IOP was monitored with the Servo-Null-Micropipette System (SNMS). The test protocols are described in detail by Yang et al. supra, 2005, herein incorporated by reference. […] In comparison, addition of the same volume of saline at the same osmolality produced no significant change in IOP (-0.3±1.2 mmHg, n=6, p>0.8) 14 min later. […] To estimate an approximate range, “penetrance” was defined by Yang et al. as the ratio of the published Ki value at receptors in vitro to the minimally effective droplet concentration, for a number of adenosine agonists and antagonists. Thus, penetrance ranges from 1:100 to 1:1000 for purinergic drugs that have been tested in the mouse, and it is not very different from the drug penetrance of 1:100 for agents applied topically to rabbits and primates. This rule of thumb also applies to acylguanidine blockers and bumetanide, whose topical effects have also been studied in the mouse eye. Thus, the approximately 1:1000 penetrance that Yang et al. reported in the 2003 citation for MRS 1292 in the present experiments is consistent with past studies

mouse IOP [4] = assay: Mouse IOP after topical application, invasive servo-null micropipette system (SNMS); format: in vivo, Black Swiss mice
Procedure: (§1) The test animals were black Swiss outbred mice of mixed sex, 7-9 weeks old and 25-30 g in weight, obtained from Taconic Inc. (Germantown, N.Y.), and maintained under 12:12-h light/dark illumination cycle and allowed unrestricted access to food and water. Mice were anesthetized with intraperitoneal ketamine ([…]) supplemented by topical proparacaine HCl 0.5% (Allergan, Bausch & Lomb) for the IOP measurements. IOP was measured invasively (SNMS) and non-invasively by pneumotonometry in separate animals.
By the SNMS approach (Avila et al., supra, 2001), the exploring micropipette, of […] outer diameter, was filled with a highly conducting solution and advanced across the cornea into the anterior chamber. A refined technique by Wang et al., Invest. Opthalmol. Vis. Sci. (serial online) (Aug. 31, 2006) available at www.iovs.org/egi/letters/46/9/3274#422, enhanced stability and reduce the background noise of the records, permitting fabrication of micropipettes whose resistance is 0.1-0.3 MΩ, rather than the 0.25-0.4 MΩ used initially. The filling solution was reduced from 3M KCl to 2M NaCl, rather than 3 M KCl. The resistance of the filled micropipette was balanced in a bridge circuit, and the tip was then advanced across the cornea. Upon entering the anterior chamber of the eye, the IOP forces the much lower-conducting aqueous humor into the micropipette tip, displacing the original filling solution. The micropipette resistance was thereby increased, unbalancing the bridge circuit and triggering a bellows to provide a counter-pressure, restoring the position of the filling solution and returning the resistance to its initial value. Thus, the value of the counter-pressure equals the IOP. As in the past (Avila et al., supra, 2001), the stability of the records permitted continuous measurements for tens of minutes during the course of drug applications.
(§2) Ketamine HCl was purchased from Phoenix Pharmaceutical Inc. (St. Joseph, Mo.). Other drugs were obtained from Sigma Chemical (St. Louis, Mo.). Drugs were applied topically with an Eppendorf pipette. […] The final droplet solution contained the drugs at the stated concentrations together with <2% DMSO and 0.0005% benzalkonium chloride at an osmolality of 295-300 mOsm. DMSO was omitted, altogether, from droplets containing the hydrophilic compounds adenosine, carbachol and carboxyfluorescein.
(§3) Effects on invasively-measured IOP were measured 10 min after topical application because after this time, the continued presence of the micropipette can be associated with a downward drift of the IOP, even under control conditions. In contrast, smaller droplets ([…]) were applied to the eye more frequently (three times instead of once) with the non-invasive technique, in order to forestall drying of the eye associated with the airflow from the pneumotonometer. With the non-invasive protocol, the IOP was stable for 30 min under control conditions.
In Table 1, an endpoint of 10 minutes was used for the invasive measurements in light of the above-discussed downward drift of the IOP, even under control conditions. Also the need for smaller, more frequent droplets are discussed above with regard to the non-invasive technique using the pneumotonometer. As above, with the non-invasive protocol, the IOP was stable for 30 minutes under control conditions.

mouse IOP [5] = assay: Mouse IOP after topical application, non-invasive pneumotonometry; format: in vivo, Black Swiss mice
Procedure: as §1
By comparison, IOP was measured non-invasively by pneumotonometry (OBT) (Avila et al., supra, 2005). As previously described, the commercially available tip of the ocular blood tomography (OBT) pneumotonometer (Blood Flow Analyzer [BFA] probe tip; Paradigm Medical Industries Inc.) was fit to a custom-built mount. Air flow from a constant pressure source was passed through the mount to reach a diaphragm forming the end of the BFA tip. The flow of air displaces the diaphragm outward, permitting escape of the air through holes in the wall of the probe tip into the atmosphere. Pressure was monitored with a transducer connected through a T-connection to the base of the BFA tip. The probe assembly was advanced to the cornea with a three-axis micromanipulator. The probe tip was advanced sufficiently to make contact with the tear film, as was indicated by a shift in the baseline output reading. In a refined method, the tip was withdrawn until the […] was visually displaced from the tear film. The output was then adjusted to zero before advancing the tip again. Contact with the cornea depresses the diaphragm of the BFA tip, occluding access of the air flow to the escape holes and raising the pressure at the base of the tip.
This approach was simplified to expedite identification of the endpoint, and the probe was subsequently advanced in about 10 standardized steps of approximately […] at intervals of about 10 seconds to identify the inflection region (Wang et al., supra, 2006). […] The pneumotonometric estimates of IOP were previously found to agree with manometric measurements in cannulated preparations and with estimates obtained by the servo-null technique (Avila et al., supra, 2005). Having established the baseline value of IOP, the position along the axis of advance of the micromanipulator was noted, and the probe was retracted from contact with the cornea. Subsequent measurements of IOP at later time points were obtained by advancing the probe tip to the same position, with the placement of the mouse maintained stereotactically. The measurements were conducted at 10-min intervals to avoid potential artifacts associated with prolonged pressure on the cornea.
as §2, §3
In Table 1, an endpoint of 10 minutes was used for the invasive measurements in light of the above-discussed downward drift of the IOP, even under control conditions. […]

[6] = tested on: C57 mouse intraocular pressure; assay: C57 mouse intraocular pressure, invasive servo-null technique; format: in vivo, C57 mice

Row | SMILES | τ time constant of the shrinkage ([1]; 100 nM) | v∞ steady-state cell volume ([1]; 100 nM, normalized to first time point as 100% isotonic volume) | effect of agonist on isosmotic volume of NPE cells ([1]; agonist 100 nM) | Kd ([1]; in the presence of gramicidin, read-out: apparent Kd for the IB-MECA-induced shrinkage) | effect on short-circuit current [2] | increase in IOP (mouse IOP [3]; 140 nM) | increase in IOP (mouse IOP [3]; 10-fold lower concentration than 140 nM) | change in IOP (mouse IOP [3]; droplet concentration 1400 nM) | effect on mouse IOP measured invasively (in words) (mouse IOP [4]; servo-null, topical) | effect on IOP in the mouse (in words) (mouse IOP [4]; tested by the inventors, technique not given) | Δ(IOP) Servo-Null (mouse IOP [4]; topical droplet 250 μM (2% DMSO), endpoint 10 min) | effect on mouse IOP measured non-invasively (in words) (mouse IOP [5]; pneumotonometry, topical, MRS-3833 at 200 nM) | Δ(IOP) Pneumotonometer (mouse IOP [5]; topical droplets 250 μM (2% DMSO), 30 min) | IOP with MRS3771 ([6]; Mean ± SEM of 6 experiments) | change in IOP ([6]; Mean ± SEM of 6 experiments) | lowering of IOP of C57 mice ([6]; topical, N=6)
1 | CNC(=O)[C@H]1O[C@@H](n2cnc3c(NCc4cccc(I)c4)ncnc32)[C@H](O)[C@@H]1O [IB-MECA, N^6-(3-iodobenzyl)-adenosine-5′-N-methyluronamide] | 4.5 ± 0.6 min | 95.6±0.2% | produced prompt shrinkage | 55 nM | increased the short circuit current; also recorded: produced a significant increase in the short-circuit current | 4.6±1.6 mmHg | 2.2±0.5 mm Hg | −1.2±1.9 mmHg |  |  |  |  |  |  |  | 
2 | CN(C)C(=O)[C@H]1O[C@@H](n2cnc3c(NCc4cccc(I)c4)nc(Cl)nc32)[C@H](O)[C@@H]1O [MRS-3771] |  |  |  |  |  |  |  |  | effective in lowering mouse IOP | found to lower IOP in the mouse | −3.0 ± 1.1 mm Hg | exerted no effect on IOP | +0.4 ± 0.6 mm Hg | 13.2 ± 1.6 mm Hg | −3.3 ± 0.6 mm Hg | 3.3±0.6 mm Hg

Source: patent US20090258836A1, “EFFECTIVE DELIVERY OF CROSS-SPECIES A3 ADENOSINE-RECEPTOR ANTAGONISTS TO REDUCE INTRAOCULAR PRESSURE” (The Trustees of The University of Pennsylvania, priority 2006, published 2009)
